Measurements taken from patent US20250346512A1, “WATER TREATMENT METHOD, WATER TREATMENT APPARATUS, SLIME INHIBITOR, AND CLEANING METHOD” (ORGANO CORPORATION, priority 2022, published 2025).

Test system: viable bacteria
Assay: Contact of slime inhibitor with water containing viable bacteria
Format: cell-based
From the text: The slime inhibitor was brought into contact with water containing viable bacteria, and the number of viable bacteria before the contact with the slime inhibitor and the number of viable bacteria after contact with the slime inhibitor for one hour were examined.

OCl [Sodium hypochlorite, sodium hypochlorite]
Number of viable bacteria before contact with slime inhibitor (baseline before contact): 10^6 | Number of viable bacteria after contact with slime inhibitor for one hour (slime inhibitor 0.1 mg/L as Cl2, contact one hour): 10^5
